In US11203600B2 (Denali Therapeutics Inc., priority 2017, dated 2021):

Each compound was assayed against GST-hRIPK1 (8-327) (Homo sapiens (Human), UniProt Q13546) (assay: Fluorescent Polarization Binding (FP Binding) assay, RIPK1). Conditions: 10 nM GST-hRIPK1 (8-327), 5 nM fluorescent-labeled ligand, RT, 30 min, mean of at least two independent experiments.
Chain of GST-hRIPK1 (8-327) (Q13546 8-327): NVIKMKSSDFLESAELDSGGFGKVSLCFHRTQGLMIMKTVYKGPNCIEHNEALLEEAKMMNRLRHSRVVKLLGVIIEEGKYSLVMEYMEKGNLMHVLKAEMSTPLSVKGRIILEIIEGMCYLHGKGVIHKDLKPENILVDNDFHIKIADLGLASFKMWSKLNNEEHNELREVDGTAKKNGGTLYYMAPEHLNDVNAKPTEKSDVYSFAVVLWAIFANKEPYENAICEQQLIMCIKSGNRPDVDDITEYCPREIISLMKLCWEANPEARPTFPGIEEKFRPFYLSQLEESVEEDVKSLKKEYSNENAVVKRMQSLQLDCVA
Procedure, shortened: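 Binding by fluorescence polarisation at RT: 10 nM baculovirus-expressed GST-hRIPK1 (8-327) and 5 nM fluorescent ligand, 30 min, in 50 mM HEPES pH 7.5, 50 mM MgCl2, 0.02% CHAPS, 1% DMSO. FP read at ex 531/em 595 nm. IC50 from normalised percent inhibition, mean of ≥2 experiments.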
In the case of `O=C(C(C1CC1)C1CC1)N1CCOc2c(F)cccc2C1` [Example 19, 2,2-dicyclopropyl-1-(9-fluoro-3,5-dihydro-2H-1,4-benzoxazepin-4-yl)ethanone], the IC50 is reported as > 1000 nM.
`CC(C)(C(=O)N1CCOc2c(C#N)cncc2C1)C1CC1C(F)F` (centres unmarked) [Example 82, 4-[2-(-2-(difluoromethyl)cyclopropyl)-2-methyl-propanoyl]-3,5-dihydro-2H-pyrido[3,4-f][1,4]oxazepine-9-carbonitrile] showed an IC50 of 100 to 1000 nM.
In the case of `C[C@@H]1COc2c(C#N)cncc2CN1C(=O)C1(F)CCN(c2ncc(F)cn2)CC1` [Example 86, (3R)-4-[4-fluoro-1-(5-fluoropyrimidin-2-yl)piperidine-4-carbonyl]-3-methyl-3,5-dihydro-2H-pyrido[3,4-f][1,4]oxazepine-9-carbonitrile], the IC50 is reported as 0.1 to 100 nM.
`CC(C)(C(=O)N1CCOc2cc(F)ccc2C1)C(F)F` [Example 68, 3,3-difluoro-1-(8-fluoro-3,5-dihydro-2H-1,4-benzoxazepin-4-yl)-2,2-dimethyl-propan-1-one] was tested, and the IC50 was 100 to 1000 nM.
Compound `CC(C)(C(=O)N1CCOc2c(F)cccc2C1)C1CC1` [Example 15, 2-cyclopropyl-1-(9-fluoro-3,5-dihydro-2H-1,4-benzoxazepin-4-yl)-2-methyl-propan-1-one] has an IC50 of 0.1 to 100 nM.
Compound `N#Cc1cncc2c1OCCN(C(=O)C1(F)CCN(c3cccnn3)CC1)C2` [Example 116, 4-(4-fluoro-1-pyridazin-3-yl-piperidine-4-carbonyl)-3,5-dihydro-2H-pyrido[3,4-f][1,4]oxazepine-9-carbonitrile] has an IC50 of 100 to 1000 nM.
For `N#Cc1cncc2c1OCCN(C(=O)C1(C#N)CCN(c3ncc(F)cn3)CC1)C2` [Example 182, 4-[4-cyano-1-(5-fluoropyrimidin-2-yl)piperidine-4-carbonyl]-3,5-dihydro-2H-pyrido[3,4-f][1,4]oxazepine-9-carbonitrile], the IC50 was 100 to 1000 nM.
Work on `CC(C)(C(=O)N1CCOc2ccc(F)cc2C1)C(F)F` [Example 33, 3,3-difluoro-1-(7-fluoro-2,3,4,5-tetrahydro-1,4-benzoxazepin-4-yl)-2,2-dimethylpropan-1-one] yielded an IC50 of 0.1 to 100 nM.
`CCC(C)(CC)C(=O)N1CCOc2c(C#N)cncc2C1` [Example 151, 4-(2-ethyl-2-methyl-butanoyl)-3,5-dihydro-2H-pyrido[3,4-f][1,4]oxazepine-9-carbonitrile] was tested, and the IC50 was 0.1 to 100 nM.
In the case of `CC(C)(C)C(=O)N1CCCc2ccccc2C1` [Example 3, 2,2-dimethyl-1-(1,3,4,5-tetrahydro-2-benzazepin-2-yl)propan-1-one], the IC50 is reported as 100 to 1000 nM.
`N#Cc1cncc2c1OCCN(C(=O)C1(C3CC3)CC1)C2` [Example 46, 4-(1-cyclopropylcyclopropanecarbonyl)-3,5-dihydro-2H-pyrido[3,4-f][1,4]oxazepine-9-carbonitrile] gave an IC50 of 100 to 1000 nM.
For `CC(C)COC(=O)N1CCC(F)(C(=O)N2CCOc3c(C#N)cncc3C2)CC1` [Example 174, isobutyl 4-(9-cyano-3,5-dihydro-2H-pyrido[3,4-f][1,4]oxazepine-4-carbonyl)-4-fluoro-piperidine-1-carboxylate], the IC50 was > 1000 nM.
`CC(C)(CC1CC1)C(=O)N1CCOc2c(C#N)cncc2C1` [Example 58, 4-(3-cyclopropyl-2,2-dimethyl-propanoyl)-3,5-dihydro-2H-pyrido[3,4-f][1,4]oxazepine-9-carbonitrile] showed an IC50 of 100 to 1000 nM.
For `COc1cnc(Cl)nc1N1CCC(F)(C(=O)N2CCOc3c(C#N)cncc3C2)CC1` [Example 186, 4-[1-(2-chloro-5-methoxy-pyrimidin-4-yl)-4-fluoro-piperidine-4-carbonyl]-3,5-dihydro-2H-pyrido[3,4-f][1,4]oxazepine-9-carbonitrile], the IC50 was > 1000 nM.
In the case of `CC(C(=O)N1CCOc2c(C#N)cncc2C1)C1CC1` (centres unmarked) [Example 146, 4-(2-cyclopropylpropanoyl)-3,5-dihydro-2H-pyrido[3,4-f][1,4]oxazepine-9-carbonitrile], the IC50 is reported as 100 to 1000 nM.
For `CCC(C)(C)C(=O)N1CCOc2c(C#N)cncc2C1` [Example 54, 4-(2,2-dimethylbutanoyl)-3,5-dihydro-2H-pyrido[3,4-f][1,4]oxazepine-9-carbonitrile], the IC50 was 0.1 to 100 nM.
`CC(CF)(CF)C(=O)N1CCOc2c(C#N)cncc2C1` [Example 147, 4-[3-fluoro-2-(fluoromethyl)-2-methyl-propanoyl]-3,5-dihydro-2H-pyrido[3,4-f][1,4]oxazepine-9-carbonitrile] was tested, and the IC50 was 0.1 to 100 nM.
`N#Cc1cncc2c1OCCN(C(=O)C1(F)CCN(c3nccc(C(F)(F)F)n3)CC1)C2` [Example 167, 4-[4-fluoro-1-[4-(trifluoromethyl)pyrimidin-2-yl]piperidine-4-carbonyl]-3,5-dihydro-2H-pyrido[3,4-f][1,4]oxazepine-9-carbonitrile] showed an IC50 of 100 to 1000 nM.
`N#Cc1cncc2c1OCCN(C(=O)C1(F)CCN(c3ncc4ccccc4n3)CC1)C2` [Example 97, 4-(4-fluoro-1-quinazolin-2-yl-piperidine-4-carbonyl)-3,5-dihydro-2H-pyrido[3,4-f][1,4]oxazepine-9-carbonitrile] gave an IC50 of 0.1 to 100 nM.
Work on `N#Cc1cncc2c1OCCN(C(=O)C13CC(COc4ncc(F)cn4)(C1)C3)C2` [Example 93, 4-(3-(((5-fluoropyrimidin-2-yl)oxy)methyl)bicyclo[1.1.1]pentane-1-carbonyl)-2,3,4,5-tetrahydropyrido[3,4-f][1,4]oxazepine-9-carbonitrile] yielded an IC50 of 100 to 1000 nM.
`COC(C)(C(=O)N1CCOc2c(C#N)cncc2C1)C1CC1` (centres unmarked) [Example 154, 4-(2-cyclopropyl-2-methoxy-propanoyl)-3,5-dihydro-2H-pyrido[3,4-f][1,4]oxazepine-9-carbonitrile] showed an IC50 of 100 to 1000 nM.
`CC(F)(F)C(C)(C)C(=O)N1CCOc2c(F)cccc2C1` [Example 18, 3,3-difluoro-1-(9-fluoro-3,5-dihydro-2H-1,4-benzoxazepin-4-yl)-2,2-dimethyl-butan-1-one] showed an IC50 of 0.1 to 100 nM.
`CC(C)(C(=O)N1CCOc2c(C#N)cncc2C1)C1CC1C#N` (centres unmarked) [Example 83, 4-[2-(2-cyanocyclopropyl)-2-methyl-propanoyl]-3,5-dihydro-2H-pyrido[3,4-f][1,4]oxazepine-9-carbonitrile] was tested, and the IC50 was > 1000 nM.
`CC(C(=O)N1CCOc2c(C#N)cncc2C1)(C(F)F)C1CC1` (centres unmarked) [Example 56, 4-(2-cyclopropyl-3,3-difluoro-2-methyl-propanoyl)-3,5-dihydro-2H-pyrido[3,4-f][1,4]oxazepine-9-carbonitrile] showed an IC50 of 0.1 to 100 nM.
In the case of `N#Cc1cncc2c1OCCN(C(=O)C1(F)CCN(c3ncc(Cl)cn3)CC1)C2` [Example 164, 4-[1-(5-chloropyrimidin-2-yl)-4-fluoro-piperidine-4-carbonyl]-3,5-dihydro-2H-pyrido[3,4-f][1,4]oxazepine-9-carbonitrile], the IC50 is reported as 0.1 to 100 nM.
`COc1nc(N2CCC(F)(C(=O)N3CCOc4c(C#N)cncc4C3)CC2)ncc1Cl` [Example 128, 4-[1-(5-chloro-4-methoxy-pyrimidin-2-yl)-4-fluoro-piperidine-4-carbonyl]-3,5-dihydro-2H-pyrido[3,4-f][1,4]oxazepine-9-carbonitrile] was tested, and the IC50 was 0.1 to 100 nM.
`COC1(C(=O)N2Cc3cncc(C#N)c3OC[C@H]2C)CCN(c2ncc(F)cn2)CC1` [Example 105, (3R)-4-[1-(5-fluoropyrimidin-2-yl)-4-methoxy-piperidine-4-carbonyl]-3-methyl-3,5-dihydro-2H-pyrido[3,4-f][1,4]oxazepine-9-carbonitrile] was tested, and the IC50 was 0.1 to 100 nM.

Same assay, conditions: GST-hRIPK1 (8-327), mean of at least two independent experiments
`N#Cc1cncc2c1OCCN(C(=O)C1CCN(c3ccnc4c(Cl)cnn34)C[C@@H]1F)C2` (stereo partly drawn) [Example 227, 4-[1-(3-chloropyrazolo[1,5-a]pyrimidin-7-yl)-(3,4)-trans-3-fluoro-piperidine-4-carbonyl]-3,5-dihydro-2H-pyrido[3,4-f][1,4]oxazepine-9-carbonitrile] gave an IC50 of 0.1 to 100 nM.
`O=C(C1CCN(c2ccnc3ccnn23)C[C@@H]1F)N1CCOc2c(F)cncc2C1` (stereo partly drawn) [Example 253, (9-fluoro-3,5-dihydro-2H-pyrido[3,4-f][1,4]oxazepin-4-yl)-[(3,4)-trans-3-fluoro-1-pyrazolo[1,5-a]pyrimidin-7-yl-4-piperidyl]methanone] gave an IC50 of 0.1 to 100 nM.
For `N#Cc1cncc2c1OCCN(C(=O)C1CCN(c3nccn4ncnc34)CC1(F)F)C2` (centres unmarked) [Example 219, 4-[3,3-difluoro-1-([1,2,4]triazolo[1,5-a]pyrazin-8-yl)piperidine-4-carbonyl]-3,5-dihydro-2H-pyrido[3,4-f][1,4]oxazepine-9-carbonitrile], the IC50 was 100 to 1000 nM.
In the case of `N#Cc1cncc2c1OCCN(C(=O)C1(F)CCN(c3ncc(F)cn3)CC1(F)F)C2` (single isomer, unassigned) [Example 295, 4-[3,3,4-Trifluoro-1-(5-fluoropyrimidin-2-yl)piperidine-4-carbonyl]-3,5-dihydro-2H-pyrido[3,4-f][1,4]oxazepine-9-carbonitrile], the IC50 is reported as 100 to 1000 nM.
With `COC1(C(=O)N2CCOc3c(C#N)cncc3C2)CCN(c2ncccn2)CC1` [Example 239, 4-(4-methoxy-1-pyrimidin-2-yl-piperidine-4-carbonyl)-3,5-dihydro-2H-pyrido[3,4-f][1,4]oxazepine-9-carbonitrile] the IC50 was 0.1 to 100 nM.
`CC(F)C(C)(C)C(=O)N1CCOc2c(C#N)cncc2C1` (single isomer, unassigned) [Example 270, 4-(3-fluoro-2,2-dimethyl-butanoyl)-3,5-dihydro-2H-pyrido[3,4-f][1,4]oxazepine-9-carbonitrile] showed an IC50 of 0.1 to 100 nM.
Work on `CC(C)(C(=O)N1CCOc2c(C#N)cncc2C1)[C@H]1C[C@@H](Cn2nccn2)C1` [Example 291, cis-4-[2-methyl-2-[3-(triazol-2-ylmethyl)cyclobutyl]propanoyl]-3,5-dihydro-2H-pyrido[3,4-f][1,4]oxazepine-9-carbonitrile] yielded an IC50 of 100 to 1000 nM.
`CC(C(=O)N1CCOc2c(C#N)cncc2C1)(C(F)F)C(F)F` [Example 268, 4-[2-(difluoromethyl)-3,3-difluoro-2-methyl-propanoyl]-3,5-dihydro-2H-pyrido[3,4-f][1,4]oxazepine-9-carbonitrile] showed an IC50 of 100 to 1000 nM.
